Article PMC11741115, “New Hydrogenated Phenanthrene Glycosides from the Edible Vegetable Elatostema tenuicaudatum W.T.Wang with DPP-IV Inhibitory and Hepatoprotective Activity” (Journal of Agricultural and Food Chemistry, 2025)

Columns and labels:
DPP-IV = target: T1, DPP-IV (Homo sapiens, UniProt P27487); assay: DPP-IV inhibition activity (DPP-IV Activity Assay Kit, AMC fluorescence); type: biochemical; conditions: for IC50: pure compounds; for DPP-IV inhibition (in words): summary
T1 construct: purchased BioVision K779-100
Protocol: 2.7. DPP-IV inhibition activity
A commercially available DPP -IV Activity Assay Kit (K779 -100, BioVision) was employed to evaluate DPP-IV activity. The procedures were conducted according to the manufacturer’s instructions. DPP-IV enzymatically cleaves substrates, leading to the release o f the quenched fluorescent group AMC (7 -Amino-4-Methyl Coumarin). AMC detection was measured with a fluorescence reader at Ex/Em = 360/460 nm. […]

HepG2 cells = assay: Hepatoprotective effect against acetaminophen-induced hepatotoxicity in HepG2 cells (MTT); type: cell-based, Human; conditions: for viability at 50 µM: Homo sapiens, HepG2, 50 μM compound, pretreated 8 h, 6 mM APAP for 36 h, MTT, read-out: cell viability (cytoprotection against APAP)
Protocol: Human hepatocellular carcinoma HepG2 cells were obtained from the Bioresource Collection and Research Center (BCRC, Hsinchu, Taiwan). Cells culture was conducted with a complete medium consisting of DMEM (Dulbecco's Modified Eagle Medium, Gibco), 10% (v/v) fetal bovine serum (FBS) (Gibco), and 1% (v/v) antibiotic -antimycotic […] (Gibco, 15240062). Upon reaching at 80% confluence, cells were rinsed with PBS and detached using trypsin -EDTA (Gibco, 25200072) at 37 °C for 5 minutes. Subsequently, cells were seeded into specialized 96 -well plates (3 × 10^4/well, 100 µL/well) and incubated for 24 hours at 37 °C with 5% CO2. […]
control cells were used as a reference under the same conditions. The maximum absorbance value depended on the solvent used in the sample solution, and the percentage viability of cells was determined using the formula: […]. […]
3.9.2. Assess hepatoprotective effects of compounds […]
using an acetaminophen-induced hepatotoxicity HepG2 model. Cells were initially seeded in 96 -well plates at a density of 3 × 10^4 cells/well and then incubated under identical conditions with 5% CO 2 for 24 hours. Following this, cells were exposed to the test samples. After 8 hours, hepatotoxicity was induced using acetaminophen (Sigma Aldrich, A7085) at a concentration of 6 mM. The protective effects were assessed by determining cell viability using the MTT method 36 hours post - acetaminophen induc tion. Silymarin (at concentration of 50 μg/mL) was used as positive control. […]

T1 sequence (P27487 whole entry, species assumed): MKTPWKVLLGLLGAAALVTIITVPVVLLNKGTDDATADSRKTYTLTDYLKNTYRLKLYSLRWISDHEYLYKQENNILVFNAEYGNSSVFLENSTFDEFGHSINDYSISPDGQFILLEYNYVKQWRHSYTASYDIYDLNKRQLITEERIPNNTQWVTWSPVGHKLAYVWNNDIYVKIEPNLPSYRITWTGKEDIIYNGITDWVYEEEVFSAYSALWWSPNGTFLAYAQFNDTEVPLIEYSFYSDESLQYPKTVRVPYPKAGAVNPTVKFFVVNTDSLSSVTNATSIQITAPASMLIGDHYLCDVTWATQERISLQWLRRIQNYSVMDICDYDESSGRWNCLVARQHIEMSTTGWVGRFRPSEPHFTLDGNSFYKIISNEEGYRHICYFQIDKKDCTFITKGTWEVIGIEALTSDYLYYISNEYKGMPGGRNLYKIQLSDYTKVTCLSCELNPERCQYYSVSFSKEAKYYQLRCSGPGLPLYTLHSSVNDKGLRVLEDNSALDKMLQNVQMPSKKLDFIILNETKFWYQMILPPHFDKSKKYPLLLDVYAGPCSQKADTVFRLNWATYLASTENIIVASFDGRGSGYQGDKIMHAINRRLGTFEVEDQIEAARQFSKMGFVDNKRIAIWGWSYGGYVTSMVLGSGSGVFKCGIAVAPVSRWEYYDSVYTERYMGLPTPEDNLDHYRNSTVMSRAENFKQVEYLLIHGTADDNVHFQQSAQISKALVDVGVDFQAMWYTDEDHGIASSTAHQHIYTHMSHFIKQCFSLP

Row | SMILES | inhibition at 400 µM (DPP-IV) [%] | inhibition at 150 µM (DPP-IV) [%] | IC50 (DPP-IV) [µM] | DPP-IV inhibition (in words) (DPP-IV) | hepatoprotective effect in acetaminophen-induced hepatotoxicity in HepG2 (in words) (HepG2 cells) | viability at 50 µM (HepG2 cells) [%]
1 | COc1cc2c(cc1O[C@@H]1O[C@H](CO)[C@@H](O)[C@H](O)[C@H]1O)[C@@]1(O)C(=O)C[C@H](O)C[C@@H]1CC2 [Compound 1, elatostemanoside A] | > 50 | – | – | – | significant hepatoprotective effects | 85.6
2 | COc1cc2c(cc1O[C@@H]1O[C@H](CO)[C@@H](O)[C@H](O)[C@H]1O)[C@@]1(O)C(=O)C[C@H](O)C[C@H]1CC2 [Compound 5, elatostemanoside E] | > 50 | ≥ 50 | 142 ± 15.6 | weak effects | – | –
3 | COc1cc2c(cc1O[C@@H]1O[C@H](CO)[C@@H](O)[C@H](O)[C@H]1O)[C@@]1(O)C(=O)C=CC[C@@H]1CC2 [Compound 9, elatostemanoside I] | – | – | – | – | significant hepatoprotective effects | 82.6
4 | COc1cc2c(cc1O[C@@H]1O[C@H](CO)[C@@H](O)[C@H](O)[C@H]1O)[C@@]1(O)C(=O)C=CC[C@H]1CC2 [Compound 11, elatostemanoside K] | – | – | – | – | significant hepatoprotective effects | 81.6
5 | OC[C@H]1O[C@@H](Oc2cc3c(cc2O)CCc2cccc(O)c2-3)[C@H](O)[C@@H](O)[C@@H]1O [Compound 14, 7,4-dihydroxy-9,10-dihydrophenanthrene 6-O-β-D-glucopyranoside] | > 50 | ≥ 50 | 71.9 ± 8.9 | moderate inhibition | significant hepatoprotective effects | 78.8

The next lines start with results.

Row | inhibition at 400 µM (DPP-IV) [%] | inhibition at 150 µM (DPP-IV) [%] | IC50 (DPP-IV) [µM] | DPP-IV inhibition (in words) (DPP-IV) | SMILES | hepatoprotective effect in acetaminophen-induced hepatotoxicity in HepG2 (in words) (HepG2 cells) | viability at 50 µM (HepG2 cells) [%]
6 | > 50 | – | – | – | COc1cc2c(cc1O[C@@H]1O[C@H](CO)[C@@H](O)[C@H](O)[C@H]1O)[C@@]1(O)C(=O)C[C@@H](O)C[C@@H]1CC2 [Compound 2, elatostemanoside B] | – | –
7 | > 50 | ≥ 50 | 151 ± 11.8 | weak effects | COc1cc2c(cc1O[C@@H]1O[C@H](CO)[C@@H](O)[C@H](O)[C@H]1O)[C@@]1(O)C(=O)C[C@@H](O)C[C@H]1CC2 [Compound 6, elatostemanoside F] | – | –
8 | > 50 | ≥ 50 | 108 ± 19.6 | weak effects | COc1cc2c(cc1O[C@@H]1O[C@H](CO)[C@@H](O)[C@H](O)[C@H]1O)[C@@]1(O)C(=O)[C@@H](O)[C@H](O)C[C@H]1CC2 [Compound 8, elatostemanoside H] | – | –
9 | > 50 | – | – | – | COc1cc2c(cc1O[C@@H]1O[C@H](CO)[C@@H](O)[C@H](O)[C@H]1O)[C@@]1(OC)C(=O)C=CC[C@@H]1CC2 [Compound 10, elatostemanoside J] | – | –
10 | > 50 | – | – | – | COc1cc2c(cc1O[C@@H]1O[C@H](CO[C@@H]3O[C@@H](C)[C@H](O)[C@@H](O)[C@H]3O)[C@@H](O)[C@H](O)[C@H]1O)-c1c(O)cccc1CC2 [Compound 15, elatostemanoside O] | – | –
11 | > 50 | – | – | – | COc1cc2c(cc1OC1OC(CO)C(O)C(O)C1O)C1(O)C(=O)CC(C3=CCC4CCc5cc(OC)c(OC6OC(CO)C(O)C(O)C6O)cc5C4(O)C3=O)CC1CC2 (centres unmarked) [Compound 16, elatostemanoside P] | – | –
